Test [1] deals with HITC6 SMCs. Description: Senescence-associated beta-galactosidase activity / senescence-free survival. It counts as cell-based, human. As to conditions: successive subcultures incubated with 10 nM FK866; p<0.0001. Here is the method:
Senescence-associated β-Galatosidase Activity Assay. SMCs on glass coverslips at approximately 70% confluence were fixed in 2% formaldehyde/0.2% glutaraldehyde in PBS for 3 minutes and incubated with X-gal-containing reaction mixture, as previously described (Dimri, 1995). Washed cells were stained with Hoechst 33258 (2.5 μg/ml) and the proportion of senescence-associated β-galactosidase (SA β-Gal)-positive cells quantified from 10 microscope fields of view (Olympus BX51, ×20 objective, approximately 1200 cells). Senescence-free survival was determined using Kaplan-Meier analysis of survival vs. replicative age.
Senescence-associated Beta-galactosidase Activity. Senescence-associated beta-galactosidase (SA-β-gal) activity was determined as previously described (Dimri et al, 1995). Briefly, SMCs were fixed in PBS containing 2% formaldehyde/0.2% glutaraldehyde for 3 min at room temperature. Fixed cells were then incubated for 4-6 h at 37° C. with SA-β-gal stain solution containing 150 mM NaCl, 2 mM MgCl, 40 mM citrate, 5 mM potassium ferrocyanide, 5 mM potassium ferricyanide, and 1 mg/ml of 5-bromo-4-chloro-3-indolyl-β-D-galactopyranoside (X-gal) (Invitrogen, Carlsbad, Calif., USA), at pH 6.0. SMCs were counterstained with 2.5 μg/ml Hoechst 33258 to detect cell nuclei. The proportion of SA-β-gal activity positive cells was quantified using light and fluorescence microscopy (Olympus BX51, Center Valley, Pa., USA).

The test system of test [2] is SIRT1. Description: SIRT1 deacetylase activity in live SMCs (Fluor de Lys-SIRT1 substrate, TSA-independent). Format: cell-based, human. As to conditions: HITC6 SMCs incubated with 10 nM FK866, 48 h. Here is the method: In vivo assessment of SIRT1 deacetylase activity. Cell-based assessment of SIRT1-like enzymatic activity was performed using the Fluor de lys-SIRT1 substrate (Biomol, Plymouth Meeting, Pa.), as previously described (de Boer, 2006). SMCs in phenol-red free M199 with 5% FBS were incubated for 2 h with 5 μM TSA followed by addition of the fluorogenic substrate for 4 h. Signal was quantified by spectrofluorimetry (Wallac, Wellesley, Mass.) and normalized to total protein content.
Assessment of SIRT1 Deacetylase Activity. SIRT1 deacetylase activity was quantified in live cells as previously reported (de Boer et al, 2006). SMCs cultured in phenol red-free M199 were incubated without serum for 2 h with 1 μM trichostatin A (Sigma, St. Louis, Mo., USA) followed by addition of 25 μM Fluor-de-Lys-SIRT1 fluorogenic substrate (Biomol, Plymouth Meeting, Pa., USA) for 4 h. Media containing fluorogenic substrate and reaction product was incubated with an equal volume of SIRT1 assay buffer containing 2 mM nicotinamide and developer (Biomol, Plymouth Meeting, Pa., USA). Signal was quantified by spectrofluorometry (Wallac VICTOR-1420, PerkinElmer Life Science, Waltham, Mass., USA) and normalized to total protein content

Test [3] has as its target T1, Nampt (Homo sapiens, UniProt P43490).
T1 construct: endogenous in cells; host or cells: human vascular SMCs (primary and HITC6), whole cell lysates
Description: Nicotinamide phosphoribosyltransferase (Nampt/PBEF) activity in SMC lysates, [14C]nicotinamide to NMN. Format: cell-based. The procedure: Nicotinamide Phosphoribosyltransferase Activity. […] Labelled acetone-precipitable nicotinamide mononucleotide was quantified by scintillation counting.
Assessment of Nicotinamide Phosphoribosyltransferase Activity. […] Briefly, SMCs were lysed in buffer containing 10 mM NaH2PO4/Na2HPO4, at pH 8.8. Cell lysates were incubated with 0.5 μM [carbonyl-^14C]nicotinamide and 0.5 mM phosphoribosylpyrophosphate for 4 h on a rotating rocker at 37° C.

T1 sequence (P43490 whole entry): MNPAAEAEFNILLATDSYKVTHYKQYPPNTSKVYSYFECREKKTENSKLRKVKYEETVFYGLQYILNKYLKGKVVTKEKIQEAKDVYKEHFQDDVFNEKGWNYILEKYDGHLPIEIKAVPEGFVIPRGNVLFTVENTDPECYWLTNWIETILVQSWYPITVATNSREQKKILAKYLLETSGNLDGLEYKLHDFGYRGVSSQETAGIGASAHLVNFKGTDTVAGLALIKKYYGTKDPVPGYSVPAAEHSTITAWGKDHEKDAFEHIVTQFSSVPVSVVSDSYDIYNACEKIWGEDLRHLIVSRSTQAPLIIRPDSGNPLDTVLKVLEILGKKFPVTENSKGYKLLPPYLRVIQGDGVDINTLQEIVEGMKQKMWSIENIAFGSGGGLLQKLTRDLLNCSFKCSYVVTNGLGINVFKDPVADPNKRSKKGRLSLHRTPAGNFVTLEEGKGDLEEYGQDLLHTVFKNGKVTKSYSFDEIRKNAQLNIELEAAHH

`O=C(/C=C/c1cccnc1)NCCCCC1CCN(C(=O)c2ccccc2)CC1` [FK866, reference compound]: in test [1], the “senescence-free survival (Kaplan-Meier)” value is “substantially shortened”. Further, in test [2], the SIRT1 activity entry is listed as “substantial loss”. Also, the “PBEF activity in SMCs, % of baseline” value in test [3] (10 nM FK866) worked out at 22±2%. Also, in test [3] (SMCs incubated with 10 nM FK866, p<0.001), the “Nampt activity relative to basal level” value worked out at 0.11±0.05.

The record behind these values is patent US20080318892A1, “METHODS AND FORMULATIONS FOR PROTECTING CELLS, AND FOR TREATING DISEASES AND CONDITIONS BY OPTIMIZING THE INTRACELLULAR CONCENTRATION OF NAD” (priority 2007, published 2008).
